Experimental data taken from patent publication US20180140703A1, “TUMOR RADIOSENSITIZATION WITH ANTIBODY CONJUGATES” (The Regents of the University California, priority 2016, published 2018).
Square brackets hold non-standard residues; d marks the D form. Peptide text beside a SMILES is read from it. * marks the point of attachment. Dolaproine = CO[C@@H]([C@@H]1CCCN1)[C@@H](C)C(=O)O; Dil = CC[C@H](C)[C@H](NC)[C@@H](CC(=O)O)OC; X1 = C[C@@H](N*)[C@@H](O)c1ccccc1; NMeV = CN[C@H](C(=O)O)C(C)C

Assays:
CAL-27 tumour xenografts = experiment: In vivo tumour xenograft experiments (tumour growth); set-up: species or system mice; details: non-irradiated tumours; day 0 dose: 0.5 nmol cetuximab or C-MMAE, 2 nmol free MMAE
Method: (§4) CAL-27, OE19, NCI N87 and HCT116 tumour xenografts were established and tumour growth was measured with digital calipers. Tumour volume was measured blindly to treatment group and calculated using the formula as 1/2×length×width. Mice were randomized into groups once the average tumour volume reached >100=113. […] For irradiated mice, the tumour-bearing hindlimbs were focally irradiated while the remainder of the mouse was shielded from IR with custom designed lead blocking >95% of the dose as verified by dosimeters placed on the mouse. […] To prevent unnecessary morbidity, mice were killed if tumour length exceeded 15 mm per protocol Nonlinear regression least squares fit was used to calculate tumour volume doubling times. […] To minimize the number of mice used, tumours were grown in the bilateral flanks.

[1] = test system: CALU3 (EGFR+, HER2+) cells; experiment: Neutral comet assay; assay type: cell-based, human; details: 6 Gy, 2 nM overnight, vs vehicle or 20 nM antibody
Method: (§1) Cells were collected 15 min post IR, suspended in agarose gel and lysed per assay directions (Trevigen). Samples underwent electrophoresis under neutral conditions and were then stained with Sybr Green. Comet tails were counted in multiple fields (>60 cells per sample) and analysed using CometScore (TriTek Corp). Comet tail length was normalized to vehicle-treated, non-irradiated cells.

OE19 cells (HER2+) = experiment: Neutral comet assay; assay type: cell-based, human
Method: as §1

CAL-27 cells [2] = experiment: Clonogenic assay (SF2); assay type: cell-based, human; details: drug overnight then 2 Gy, mertansine 5 nM
Method: Following IR, cells were counted, re-plated at varying cell numbers in drug-free media. […] Surviving fraction at 2 Gy (SF2) was calculated as the fraction of cells surviving 2 Gy compared with non-irradiated cells.

CAL-27 cells [3] = experiment: Phase contrast microscopy; assay type: cell-based, human; details: 2 nM overnight
Description: Cells were fixed at indicated times and imaged for Cy5 fluorescence (red). Nuclei stained with DAPI (blue). Scale bar, 10 gm. Representative images of three independent experiments. […] Nuclei stained with DAPI (blue). Scale bar, 10 gm. Representative images of three independent experiments. […] Representative data of two independent experiments. […] Representative images of three independent experiments. Scale bar, 50 gm.

[4] = test system: CAL-27 (EGRF+) and OE19 (HER2+) cells; experiment: Alamar Blue cell viability assay; assay type: cell-based, human; details: dose range, 72-96 h
HER2+ tumor cells = experiment: Neutral comet assay following 2 Gy, FIG. 8; assay type: cell-based
Description: Neutral comet assay to measure DNA double strand breaks following 2 Gy of ionizing radiation (IR). IR increased comet tail length by 2.8 fold comapred to non-irradiated cells.

OE19 cells [5] = experiment: Cell cycle (propidium iodide, flow cytometry); assay type: cell-based, human; details: treated overnight
Method: (§2) Cells were treated with RNAse, stained with propidium iodide (PI) and analysed by FACS using FloJo software.

CAL-27 cells [6] = experiment: Cell cycle (propidium iodide, flow cytometry); assay type: cell-based, human; details: treated overnight
Method: as §2

[7] = test system: HER2 expressing tumor cells; tumor cell lines; experiment: Cell survival by Alamar Blue assay, FIG. 7; assay type: cell-based; details: across tumor cell lines
Description: MMAF potency can be increased and cytotoxicity restricted by antibody conjugation. Cell survival measured by Alamar Blue assay.

HCT116 cells [8] = experiment: Clonogenic assay (SF2); assay type: cell-based, human; details: 5 nM mertansine overnight then 2 Gy
Method: Following IR, cells were counted, re-plated at varying cell numbers in drug-free media. 10-14 days after initial seeding formed colonies were methanol fixed, stained with crystal violet and counted. Surviving fraction at 2 Gy (SF2) was calculated as the fraction of cells surviving 2 Gy compared with non-irradiated cells.

HER2+ cell lines = experiment: Neutral comet assay; assay type: cell-based, human; details: HER2+ cells; 20 nM overnight, 2 Gy
Method: as §1

HER2− cell lines = experiment: Neutral comet assay; assay type: cell-based, human; details: HER2− cells; 20 nM overnight, 2 Gy
Method: as §1

[9] = test system: cell lines irrespective of HER2 expression; experiment: Alamar Blue cell viability assay, cells based on HER2 expression; set-up: species or system human; details: 72-96 h
HCT116 cells [10] = experiment: Cell cycle (propidium iodide, flow cytometry); assay type: cell-based, human; details: treated overnight
Method: as §2

CAL-27 cells [11] = test system: CAL-27 cells
Method: (§3) Alamar Blue (resazurin) was added to the cells and allowed to incubate for 2-4 h at 37° C. Plates were analysed using a plate reader with fluorescence measured at 560 nm.

HER2+ tumours = details: combined with IR
Method: CAL-27, OE19, NCI N87 and HCT116 tumour xenografts were established and tumour growth was measured with digital calipers. […] Mice were assigned to indicated groups in ‘Results’. […] For irradiated mice, the tumour-bearing hindlimbs were focally irradiated while the remainder of the mouse was shielded from IR with custom designed lead blocking >95% of the dose as verified by dosimeters placed on the mouse. […] To minimize the number of mice used, tumours were grown in the bilateral flanks.

[12] = test system: HCT116 (HER2−) tumour xenografts; experiment: In vivo tumour xenograft experiments (tumour growth); set-up: species or system mice; details: for Tumour doubling time in days (mean, 95% CI): HCT116
Method: as §4

OE19 cells [13] = experiment: Alamar Blue cell viability assay; assay type: cell-based, human; details: OE19 (HER2 cell line); 72-96 h
[14] = test system: OE19 (HER2+) tumour xenografts; experiment: In vivo tumour xenograft experiments (tumour growth); set-up: species or system mice; details: for Tumour doubling time in days (mean, 95% CI): OE19
Method: as §4

HCT116 cells [15] = details: HCT116 (HER2−); 72-96 h
Method: as §3

[16] = test system: NCI N87 (gastric cancer) cells; details: NCI N87 (HER2 cell line); 72-96 h
Method: as §3

OE19 tumour xenografts = experiment: Immunohistochemistry of tumour xenografts (pHistone H3, cleaved caspase 3); assay type: in vivo, mice; details: OE19 tumours harvested 48 h after injection
Method: Tissue sections were cut from blocks of formalin-fixed paraffin embedded xenografts. Four micron thick tissue sections were stained with antibodies to phosphohistone H3 (pH3, Abcam, catalogue number ab32107) and cleaved caspase-3 (C1C3, Cell Signaling Technology, catalogue number 9661) and used at dilutions of 1:300 and 1:900, respectively. Slides were stained on a Ventana Discovery Ultra (Ventana Medical Systems, Tucson, Ariz., USA). Antigen retrieval was performed using CC1 for 24-40 min at 95° C. The primary antibodies were incubated on the sections for 1 h at 37° C. Primary antibodies were visualized used DAB as a chromagen using the UltraMap system (Ventana Medical systems) followed by hematoxylin as a counterstain. Slides were rinsed, dehydrated through alcohol and xylene and coverslipped.
Immununostained slides were scanned using an Axio Scan.Z1 (Zeiss; Oberkochen, Germany). […] Whole-slide images were imported into Definiens Software for quantitative analysis (Definiens; Munich, Germany). […] For analysis of pH3 (a nuclear stain), the total number of nuclei and the total number of nuclei showing DAB staining (pH3 positive cells) were recorded within each ROI. The percent of positive nuclei was then calculated for each sample. For analysis of C1C3 (a cytoplasmic stain), mean DAB chromagen intensity was measured and calculated within the ROI for each sample.

[17] = test system: NCI N87 (HER2+) tumour xenografts; experiment: In vivo tumour xenograft experiments (tumour growth); set-up: species or system mice; details: for Tumour doubling time in days (mean, 95% CI): NCI N87
Method: as §4

[18] = 0.25 nmol day 0, 2.5 Gy days 1, 2 and 3
[19] = 0.25 nmol i.v. day 0 + IR 2.5 Gy days 1, 2 and 3, extrapolated

## CC[C@H](C)[C@@H]([C@@H](CC(=O)N1CCC[C@H]1[C@H](OC)[C@@H](C)C(=O)N[C@H](C)[C@@H](O)c1ccccc1)OC)N(C)C(=O)[C@@H](NC(=O)[C@@H](NC)C(C)C)C(C)C [MMAE, monomethyl auristatin E] (H-[NMeV]V[Dil][Dolaproine]-X1)
CAL-27 tumour xenografts
  tumour growth: delayed tumour growth
[1]
  comet tail length after irradiation: increased comet tail length to a similar degree
OE19 cells (HER2+); 6 Gy, 2 nM overnight
  comet tail length after irradiation: further increased comet tail length
CAL-27 cells [2]
  surviving fraction following 2 Gy (SF2): decreased
CAL-27 cells [3]
  cell morphology: cells rounding up, indicative of G2/M
[4]
  cytotoxicity (cell viability): more potent compared with standard cytotoxic chemotherapies
HER2+ tumor cells
  IR induced DNA damage (comet tail length): further increased IR induced DNA damage
OE19 cells [5]
  cell cycle profile (G2/M): cells accumulating in G2/M
CAL-27 cells [6]
  cell cycle profile (G2/M): cells accumulating in G2/M

## CC[C@H](C)[C@@H]([C@@H](CC(=O)N1CCC[C@H]1[C@H](OC)[C@@H](C)C(=O)N[C@@H](Cc1ccccc1)C(=O)O)OC)N(C)C(=O)[C@@H](NC(=O)[C@@H](NC)C(C)C)C(C)C [MMAF] (H-[NMeV]V[Dil][Dolaproine]F-OH)
[7]
  potency compared to MMAE: decreased potency compared to MMAE across tumor cell lines
HER2+ tumor cells
  IR induced DNA damage (comet tail length): not

## COc1cc2cc(c1Cl)N(C)C(=O)C[C@H](OC(=O)[C@H](C)N(C)C(=O)CCS)[C@]1(C)O[C@H]1[C@H](C)[C@@H]1C[C@@](O)(NC(=O)O1)[C@H](OC)/C=C/C=C(\C)C2 [mertansine]
HCT116 cells [8]
  surviving fraction following 2 Gy (SF2): decreased further
HER2+ cell lines
  radiosensitization (IR induced DNA double-strand breaks): radiosensitized by increasing IR induced DNA double-strand breaks in both HER2+ and HER2− cell lines
HER2− cell lines
  radiosensitization (IR induced DNA double-strand breaks): radiosensitized by increasing IR induced DNA double-strand breaks in both HER2+ and HER2− cell lines
CAL-27 cells [2]
  surviving fraction following 2 Gy (SF2): decreased further
[9]; across cell lines, irrespective of HER2 expression
  IC50: 10 nM
OE19 cells [5]
  cell cycle profile (G2/M): increased the accumulation of both OE19 and HCT116 cells in the radiosensitive G2/M phase
HCT116 cells [10]
  cell cycle profile (G2/M): increased the accumulation of both OE19 and HCT116 cells in the radiosensitive G2/M phase

## CC(=O)O[C@H]1C(=O)[C@@]2(C)[C@H]([C@H](OC(=O)c3ccccc3)[C@]3(O)C[C@H](OC(=O)[C@H](O)[C@@H](NC(=O)c4ccccc4)c4ccccc4)C(C)=C1C3(C)C)[C@]1(OC(C)=O)CO[C@@H]1C[C@@H]2O [paclitaxel]
CAL-27 cells [11]; HER2− CAL-27 cells
  cytotoxic potency (comparison): more potent than T-DM1

## ado-trastuzumab emtansine [T-DM1]
HER2+ tumours
  long term tumour control (survival curve): long term tumour control was observed
HER2+ cell lines
  radiosensitization (IR induced DNA double-strand breaks): restricted radiosensitization of HER2+cells
HER2− cell lines
  radiosensitization (IR induced DNA double-strand breaks): appear inert to irradiated non-HER2 expressing cells
OE19 cells (HER2+); doses as low as 2 nM T-DM1
  radiosensitization (comet tail length): radiosensitized OE19 cells
[12]; [18]
  benefit of adding drug to IR: showed no benefit of adding T-DM1 to IR
[12]; 0.25 nmol i.v. day 0 + IR 2.5 Gy days 1, 2 and 3
  Tumour doubling time in days (mean, 95% CI): 7 (5-12) days
[12]; 0.25 nmol i.v. day 0, no IR
  Tumour doubling time in days (mean, 95% CI): 3 (2-5) days
OE19 cells [13]
  IC50: < 1 nM
[14]; [18]
  tumour regression, combined with IR: significantly prolonged tumour regression
[14]; [19]
  Tumour doubling time in days (mean, 95% CI): 66 (33+) days
[14]; 0.25 nmol i.v. day 0, no IR
  Tumour doubling time in days (mean, 95% CI): 11 (8-17) days
[14]; by day 22
  tumour control combined with IR vs other regimens: superior to all other treatment
[14]; single dose of 1 nmol, compared with control or trastuzumab by day 14
  tumour growth: equally efficacious in slowing tumour growth
[9]
  potency in relation to HER2 expression: directly correlated with HER2 expression
HCT116 cells [15]
  IC50: > 100 nM
CAL-27 cells [11]; CAL-27 (HER2−), 72-96 h
  IC50: > 100 nM
[16]
  IC50: < 1 nM
OE19 cells [5]
  cell cycle profile (G2/M): blocked OE19 cells in G2/M
HCT116 cells [10]
  cell cycle profile (G2/M): resembled vehide-treated cells
OE19 tumour xenografts
  apoptosis (cleaved caspase 3) in tumours: increased apoptosis
  cells in G2/M as measured by pS10 Histone H3: increased the number of cells in radiosensitive G2/M phase
[17]; [18]
  tumour regression, combined with IR: significantly prolonged tumour regression
[17]; [19]
  Tumour doubling time in days (mean, 95% CI): 113 (82-179) days
[17]; 0.25 nmol i.v. day 0, no IR
  Tumour doubling time in days (mean, 95% CI): 23 (21-25) days
[17]; by day 32
  tumour control combined with IR vs other regimens: superior to all other treatment
